{
  "source": "patent US12139729B2",
  "about": "“Neurodegenerative disorders” (priority 2013, dated 2024)",
  "key": {"rat brain slices": {"tested_on": "rat brain slices", "test": "Calcium fluorometry (Fluo-4) in brain slices", "assay_type": "cell-based", "details": "two hours", "description": "Increases in intracellular Ca^2+ were monitored by measuring changes in fluorescence in cells loaded with Fluo-4 (Life Technologies Corporation, UK). […] After the 2 hours, slices were incubated in the dark for 40 minutes at room temperature with 1.2 ml/well of loading medium that contained: Tyrode's salt solution (TSS; 137 mM NaCl, 2.7 mM KCl, 1.0 mM MgCl2, 2.5 mM CaCl2, 0.2 mM NaH2PO4, 12.0 NaHCO3, 5.5 glucose, pH 7.4), Fluo-4 (2 μM), Pluronic F127 (0.02%) and probenecid (2 mM). Probenecid is a blocker of the multidrug resistant protein, an ion transporter, and avoids the excretion of the fluorescent molecule from the cell. After incubation, slices were washed with TSS and 1200 μl/well of de-esterification medium, containing TSS and probenecid, were added. Slices were incubated in the dark for 20 minutes at 22° C. Fluorescence measurements (excitation 485 nm, emission 538 nm) were recorded in a Fluostar Optima (BMG, UK) plate reader."}, "PC12 cells": {"tested_on": "PC12 cells", "test": "Cell Counting Kit-8 (CCK-8) cell viability assay", "assay_type": "cell-based", "details": "T30 5 uM, FIG. 15", "excerpt": "A Cell Counting Kit-8 (CCK-8) was used as an improvement of the SRB technique used before. By utilizing the highly water-soluble tetrazolium salt WST-8, CCK-8 produces a water-soluble formazan dye upon reduction in the presence of an electron carrier. WST-8 is reduced by dehydrogenases in cells to give a yellow colored product (formazan), which is soluble in the tissue culture medium. The amount of the formazan dye generated by the activity of dehydrogenases in cells is directly proportional to the number of living cells. PC12 cells are plated in 200 μl of complete growth medium the day before the experiment in 96 well plates. Treatments with T30 and NBP-14 are added and incubated for 1 hour in the incubator.\nSubsequently, 100 μl of growth medium is removed and 10 μl of CCK-8 (Cell Counting Kit-8) solution is added. The plate is incubated for 2 hours in the incubator and then placed in the absorbance plate reader. The absorbance must be measured at 450 nm."}, "[1]": {"test": "Partition coefficient (Log P), shake-tube method, 1-octanol/water", "assay_type": "physicochemical", "details": "room temperature", "method": "Saturation of the solvents was performed as follows. 1-octanol was agitated in the presence of water for 24 h at room temperature. mQ water was agitated in presence of 1-octanol for 24 h at room temperature. Then the solutions were left to equilibrate overnight at room temperature. Saturated solvents were collected, using syringes and needles, and stored at room temperature until further use.\nSaturated water and saturated i-octanol were placed in a glass tube in the following ratios: Each tube contained the equivalent of 0.25 mg of cyclic T14. All tubes were then mixed for 4 h at room temperature. After agitation the tubes were left at room temperature to equilibrate.\nThe concentrations of cyclic T14 used for the standard curve were: 0.5 mg·ml^−1, 0.25 mg·ml^−1, 0.13 mg·ml^−1, 0.066 mg·ml^−1, 0.033 mg·ml^−1 and 0.016 mg/ml^−1. The absorbance of the standard curve was measured at 280 nm.\nBoth fractions of each sample were collected separately using a syringe with needle. The absorbance of all fractions was measured at 280 nm and the concentration of all the fraction was estimated based on the standard curve. The partition coefficient of cyclic T14 was calculated using the following equation: Log P=Log (Concentration in Octanol/Concentration in Water)\nThe results from each condition were averaged in order to obtain the Log P of cyclic T14."}},
  "note": "Residues, ends and D or L forms follow the SMILES beside them.",
  "data": [
    {"compound": "CSCC[C@@H]1NC(=O)[C@H](Cc2ccc(O)cc2)NC(=O)[C@H](CO)NC(=O)[C@H](CO)NC(=O)[C@H](Cc2c[nH]c3ccccc23)NC(=O)[C@H](CCCNC(=N)N)NC(=O)[C@H](Cc2c[nH]cn2)NC(=O)[C@H](Cc2ccccc2)NC(=O)[C@H](CCC(=O)O)NC(=O)[C@H](C)NC(=O)[C@H](CCCCN)NC(=O)[C@H](Cc2c[nH]c3ccccc23)NC(=O)[C@H](Cc2c[nH]cn2)NC(=O)[C@H](C(C)C)NC1=O", "note": "[Cyclic T14] (cyclo(AEFHRWSSYMVHWK))", "values": [
      {"measurement": "intracellular calcium level raised by β-Amyloid, combined with Cyclic T14", "setting": "rat brain slices; Cyclic T14 1 μM + β-Amyloid 10 μM", "result": "returned to baseline"},
      {"measurement": "intracellular calcium level, compound alone", "setting": "rat brain slices; Cyclic T14 1 μM", "result": "does not change the basal level"},
      {"measurement": "concentration range protective against T30 induced cell death", "setting": "PC12 cells", "result": "high nanomolar range"},
      {"measurement": "logP", "setting": "[1]", "result": -0.59}
    ]}
  ]
}
